What is called melting point is the temperature of the solid-liquid transition.

In the case of `CSCCNC1CCC(N(C)S(=O)(=O)c2ccc(Nc3nccc(Nc4ccc(F)cc4)n3)cc2)CC1` (stereo not drawn) [Example 144, 4-({4-[(4-Fluorophenyl)amino]pyrimidin-2-yl}amino)-N-methyl-N-[4-cis(2-methylsulfanylethyl-amino)cyclohexyl]benzenesulfonamide], the melting point turned out to be 146 °C. `CSCCNC1CCC(N(C)S(=O)(=O)c2ccc(Nc3nccc(Nc4ccc(F)cc4)n3)cc2)CC1` (stereo not drawn) [Example 145, 4-({4-[(4-Fluorophenyl)amino]pyrimidin-2-yl}amino)-N-methyl-N-[4-trans(2-methylsulfanylethyl-amino)cyclohexyl]benzenesulfonamide] gave a melting point of 171 °C.

As for `CNC1CCC(N(CCN2CCCC2)S(=O)(=O)c2ccc(Nc3nccc(Nc4ccc(F)cc4)n3)cc2)CC1` (stereo not drawn) [Example 146, 4-({4-[(4-Fluorophenyl)amino]pyrimidin-2-yl}amino)-N-(4-cis(methylamino)cyclohexyl)-N-(2-pyrrolidin-1-ylethyl)benzenesulfonamide], the melting point came to 189 °C. To `CNC1CCC(N(CCN2CCCC2)S(=O)(=O)c2ccc(Nc3nccc(Nc4ccc(F)cc4)n3)cc2)CC1` (stereo not drawn) [Example 147, 4-({4-[(4-Fluorophenyl)amino]pyrimidin-2-yl}amino)-N-(4-trans(methylamino)cyclohexyl)-N-(2-pyr-rolidin-1-ylethyl)benzenesulfonamide] belongs 128 °C.

Turning to `C#CCN(C1CCN(C)CC1)S(=O)(=O)c1ccc(Nc2nccc(Nc3ccc(F)cc3)n2)cc1` [Example 148, 4-({4-[(4-Fluorophenyl)amino]pyrimidin-2-yl}amino)-N-propargyl-N-(1-methylpiperidin-4-yl)-benzenesulfonamide], the melting point was 187 °C. With `CCN(C1CCN(C)CC1)S(=O)(=O)c1ccc(Nc2nccc(Nc3ccc(F)cc3)n2)cc1` [Example 149, 4-({4-[(4-Fluorophenyl)amino]pyrimidin-2-yl}amino)-N-ethyl-N-(1-methylpiperidin-4-yl)benzene-sulfonamide] the figure was 154 °C.

`CN(C1CCN(C2CC2)CC1)S(=O)(=O)c1ccc(Nc2nccc(Nc3ccc(F)cc3)n2)cc1` [Example 150, N-(1-Cyclopropylpiperidin-4-yl)-4-({4-[(4-fluorophenyl)amino]pyrimidin-2-yl}amino)-N-methyl-benzenesulfonamide] returned a melting point of 125 to 128 °C.

Turning to `CN1CCC(N(CC[C@H]2CCCN2)S(=O)(=O)c2ccc(Nc3nccc(Nc4ccc(F)cc4)n3)cc2)CC1` [Example 153, 4-({4-[(4-Fluorophenyl)amino]pyrimidin-2-yl}amino)-N-(1-methylpiperidin-4-yl)-N-{2-[(2R)-pyrrol-idin-2-yl]ethyl}benzenesulfonamide], the melting point was determined as 85 °C. `COc1cc(Nc2ccnc(Nc3ccc(S(=O)(=O)N(CCN4CCCC4)C4CCN(C5CC5)CC4)cc3)n2)ccc1F` [Example 156] returned a melting point of 139 °C. In turn, `CN1CCC(N(Cc2cccn2C)S(=O)(=O)c2ccc(Nc3nccc(Nc4ccc(F)cc4)n3)cc2)CC1` [Example 161, 4-({4-[(4-Fluorophenyl)amino]pyrimidin-2-yl}amino)-N-(1-methylpiperidin-4-yl)-N-[(1-methyl-1H-pyrrol-2-yl)methyl]benzenesulfonamide] returned a melting point of 129 °C. With `CN1CCC(N(C)S(=O)(=O)c2ccc(Nc3nccc(Nc4cc(F)c(F)c(F)c4)n3)cc2)CC1` [Example 162, 4-[4-(3,4,5-Trifluorophenylamino)pyrimidin-2-ylamino]-N-methyl-N-(1-methylpiperidin-4-yl)benzenesulfonamide] the figure was 226.9 °C; with `CN(C1CCN(CCS(C)(=O)=O)CC1)S(=O)(=O)c1ccc(Nc2nccc(Nc3ccc(F)c(F)c3)n2)cc1` [Example 163, 4-({4-[(3,4-Difluorophenyl)amino]pyrimidin-2-yl}amino)-N-methyl-N-{1-[2-(methyl-sulfonyl)ethyl]piperidin-4-yl}benzenesulfonamide], 204 °C; with `CN(C1CCN(Cc2cccn2C)CC1)S(=O)(=O)c1ccc(Nc2nccc(Nc3ccc(F)c(F)c3)n2)cc1` [Example 164, 4-({4-[(3,4-Difluorophenyl)amino]pyrimidin-2-yl}amino)-N-methyl-N-{1-[(1-methyl-1H-pyrrol-2-yl)methyl]piperidin-4-yl)benzenesulfonamide], 149 to 152 °C.

`CN(C1CCN(Cc2csnn2)CC1)S(=O)(=O)c1ccc(Nc2nccc(Nc3ccc(F)c(F)c3)n2)cc1` [Example 165, 4-({4-[(3,4-Difluorophenyl)amino]pyrimidin-2-yl}amino)-N-methyl-N-(1-{[1-(1,2,3)thiadiazol-4-yl]methyl}piperidin-4-yl)benzenesulfonamide] gave a melting point of 172 to 173 °C. With `Cc1cc(CN2CCC(N(C)S(=O)(=O)c3ccc(Nc4nccc(Nc5ccc(F)c(F)c5)n4)cc3)CC2)no1` [Example 166, 4-({4-[(3,4-Difluorophenyl)amino]pyrimidin-2-yl}amino)-N-methyl-N-{1-[(5-methylisoxazol-3-yl)methyl]piperidin-4-yl}benzenesulfonamide] the figure was 204 to 206 °C; with `CN(C1CCN(CC(C)(C)O)CC1)S(=O)(=O)c1ccc(Nc2nccc(Nc3ccc(F)c(F)c3)n2)cc1` [Example 167, 4-[4-(3,4-Difluorophenylamino)pyrimidin-2-ylamino]-N-[1-(2-hydroxy-2-methylpropyl)piperidin-4-yl]-N-methylbenzenesulfonamide], 234 to 235 °C; with `Cc1cc(Nc2ccnc(Nc3ccc(S(=O)(=O)N(Cc4ccco4)C4CCC(=O)CC4)cc3)n2)ccc1F` [Example 168], 184 °C. With `Cc1cc(Nc2ccnc(Nc3ccc(S(=O)(=O)N(CC4CCCO4)C4CCC(=O)CC4)cc3)n2)ccc1F` (stereo not drawn) [Example 169] the figure was 189 °C.
